Laboratory results reported in patent US20210068395A1, “METHODS OF APPLYING ONE OR MORE CERTAIN HETEROARYL-1,2,4-TRIAZOLE AND HETEROARYL-TETRAZOLE COMPOUNDS TO CONTROL DAMAGE ON PLANTS, PROPAGATION MATERIAL THEREOF, AND PLANT DERIVED PRODUCTS” (SYNGENTA CROP PROTECTION AG, priority 2018, published 2021).

Tests used:
Type in all cases: in vivo
[1] = test system: Myzus persicae (Green Peach Aphid); test: Myzus persicae feeding/contact activity; conditions: foliar, 144 h, application rate 200 ppm, sunflower leaf discs sprayed, 6 days after infestation
Protocol: Sunflower leaf discs were placed onto agar in a 24-well microtiter plate and sprayed with aqueous test solutions prepared from 10,000 ppm DMSO stock solutions. After drying, the leaf discs were infested with an aphid population of mixed ages. The samples were assessed for mortality 6 days after infestation.

[2] = test system: Nilaparvata lugens (Brown Plant Hopper); test: Nilaparvata lugens larvicide, systemic into water; conditions: 168 h, test rate 12.5 ppm, into nutritive solution of rice plants, N3 nymphs, 7 days after infestation, read-out: control in at least one of the two categories (mortality or growth inhibition)
Protocol: Rice plants cultivated in a nutritive solution were treated with the diluted test solutions into nourishing cultivation system. 1 day after application plants were infested with ˜20 N3 nymphs. 7 days after infestation samples were assessed for mortality and growth inhibition.

[3] = test system: German cockroaches, Blattella germanica; test: Cockroach N3 contact bioassay; conditions: 72 h, test rate 100 ppm, third nymphal stage, sprayed, 3 days
Protocol: (§1) Ten third nymphal stage German cockroaches, Blattella germanica, were placed in a 250 ml plastic drinking cup along with ca. 1 g of compressed rabbit food, and retained with a section of netting. Experimental compounds are diluted to 1000 ppm w/v in acetone, then subsequently to 100 ppm w/v in a 0.1% Tween solution in de-ionised water. 1 ml of the experimental solution is sprayed with a Potter tower directly through the retaining net onto the cockroach nymphs. A damp cotton wool ball is placed on top of the retaining net, and the cups held at 24° C. and ambient humidity. Assessment of mortality is made three days after application.

[4] = test system: house flies, Musca domestica; test: House fly adult contact bioassay; conditions: 72 h, test rate 100 ppm, adult females, sprayed, 3 days
Protocol: as §1, with “adult female house flies, Musca domestica, are” for “third nymphal stage German cockroaches, Blattella germanica, were”, “a sugar cube,” for “ca. 1 g of compressed rabbit food,”, “adult house flies.” for “cockroach nymphs.”

[5] = test system: German cockroaches, Blattella germanica; test: Cockroach bait bioassay; conditions: 72 h, test rate 1000 ppm in peanut butter bait, adults, 3 days
Protocol: The experimental compound is diluted in acetone to 1000 ppm w/v. 1 ml of this solution is added to 1 g of smooth peanut butter in a 15 ml glass vial and thoroughly mixed. This mixture is left in a fume cupboard for 24 hours until all the acetone has evaporated. It is then mixed again to ensure a homogeneous distribution of the experimental compound with a concentration of 1000 ppm w/w.
Ten adult male and ten adult female German cockroaches, Blattella germanica, are placed in a plastic arena approximately 20 cm in diameter. Also placed in each arena are a simple harbourage constructed from concertinaed card, and a water source. After the cockroaches have acclimatised for 24 hours the glass vial containing 1 g of the treated bait is introduced.
Assessment of cockroach mortality is made 3 days after bait introduction.

[6] = test system: Myzus persicae (Green Peach Aphid); test: Myzus persicae systemic activity; conditions: 144 h, test rate 24 ppm, roots of pea seedlings in test solution, 6 days
Protocol: Roots of pea seedlings infested with an aphid population of mixed ages were placed directly into aqueous test solutions prepared from 10,000 DMSO stock solutions. The samples were assessed for mortality 6 days after placing seedlings into test solutions.

[7] = test system: Chrysodeixis includens (Soybean Looper); test: Chrysodeixis includens larvicide, feeding/contact; conditions: 120 h, test rate 50 ppm, L2 larvae on soybean leaves, 5 days after infestation, read-out: control in at least one of the two categories (mortality or growth inhibition)
Protocol: Soybean plants were treated in a spray chamber, cut off and placed into petri dishes containing wet filter paper. 1 d after application leaves were infested with 5 L2 larvae and covered with a fabric filter and plastic lids. 5 days after infestation the samples were assessed for mortality and growth inhibition.

[8] = test system: Chilo suppressalis (Striped Stem Borer); test: Chilo suppressalis larvicide, feeding/contact; conditions: 120 h, test rate 200 ppm, L2 larvae on sprayed rice plants, 5 days after application
Protocol: Rice plants were treated in a spray chamber, cut off and placed into petri dishes containing wet filter paper. 10 L2 larvae were infested and covered up with a cotton filter and a lid. 5 days after application samples were assessed for mortality.

[9] = test system: Aedes aegypti (Yellow Fever Mosquito); test: whole plant or invertebrate; conditions: test rate 200 ppm, adult females, mortality assessed at 24 and 48 hours
Protocol: (§2) Test solutions, at an application rate of 200 ppm in ethanol, were applied to 12 well tissue culture plates. Once the deposits were dry, five, two to five day old adult female Aedes aegypti were added to each well, and sustained with a 10% sucrose solution in a cotton wool plug. Assessment of knockdown was made one hour after introduction, and mortality was assessed at 24 and 48 hours after introduction.

[10] = test system: Anopheles stephensi (Indian Malaria Mosquito); test: Anopheles stephensi adult contact on treated plates; conditions: test rate 200 ppm, adult females, mortality assessed at 24 and 48 hours
Protocol: as §2, with “Anopheles stephensi” for “Aedes aegypti”

Row | SMILES | mortality at 200 ppm [1] | percent control (mortality or growth inhibition) at 12.5 ppm [2] | mortality at 100 ppm [3] | mortality at 100 ppm [4] | mortality at 1000 ppm [5] | mortality at 24 ppm [6] | percent control (mortality or growth inhibition) at 50 ppm [7] | mortality at 200 ppm [8] | mortality at 200 ppm [9] | mortality at 200 ppm [10]
1 | CC(NC(=O)c1cc(C(F)(F)F)cc(C(F)(F)F)c1)c1ncnn1-c1ncccn1 (centres unmarked) [Compound 4] | ≥ 80% | ≥ 80% | ≥ 80% | ≥ 80% | ≥ 80% |  |  |  |  | 
2 | CC(c1ncnn1-c1ncccn1)N(C)C(=O)c1cc(C(F)(F)F)cc(C(F)(F)F)c1 (centres unmarked) [Compound 1] | ≥ 80% | ≥ 80% |  |  |  | ≥ 80% | ≥ 80% | ≥ 80% |  | 
3 | CC(c1ncnn1-c1ncccn1)N(CC1CC1)C(=O)c1cc(C(F)(F)F)cc(C(F)(F)F)c1 (centres unmarked) [Compound 3] | ≥ 80% | ≥ 80% | ≥ 80% | ≥ 80% | ≥ 80% | ≥ 80% | ≥ 80% | ≥ 80% | ≥ 60% | ≥ 60%
